#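 Cells were grown in 96-well plates and exposed to each compound for 48 hours at five concentrations; endpoints were interpolated linearly between bracketing concentrations, or set to the highest concentration if not reached. At the GI50, growth is halved. Definition used: TGI = concentration required for complete inhibition of growth.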
# Columns and labels:
# Test in all cases: NCI tumour cell line growth inhibition, 48 h
# [1] = test system: KM12 colon
# [2] = test system: A498 renal
# [3] = test system: IGROV1 ovarian
# [4] = test system: SF-268 CNS
# [5] = test system: MOLT-4 leukemia
# [6] = test system: NCI/ADR-RES ovarian
# [7] = test system: DU-145 prostate
# [8] = test system: SN12C renal
# [9] = test system: OVCAR-8 ovarian
# [10] = test system: SF-295 CNS
# [11] = test system: UACC-257 melanoma
# [12] = test system: SK-MEL-28 melanoma
# [13] = test system: MCF7 breast
# [14] = test system: BT-549 breast
# [15] = test system: SW-620 colon
# [16] = test system: K-562 leukemia
# [17] = test system: U251 CNS
# [18] = test system: UO-31 renal
# [19] = test system: A549 NSCLC
# [20] = test system: SK-MEL-5 melanoma
# [21] = test system: HT29 colon
# [22] = test system: CCRF-CEM leukemia
# [23] = test system: CAKI-1 renal
# [24] = test system: COLO 205 colon
# [25] = test system: HCT-116 colon
# [26] = test system: NCI-H460 lung
# [27] = test system: SNB-19 CNS
# [28] = test system: SF-539 CNS
# [29] = test system: LOX IMVI melanoma
# [30] = test system: PC-3 prostate
# [31] = test system: HCT-15 colon
# [32] = test system: M14 melanoma
# [33] = test system: RPMI-8226 leukemia
# [34] = test system: NCI-H226 lung
# [35] = test system: OVCAR-4 ovarian
# [36] = test system: HOP-62 NSCLC
# [37] = test system: HS 578T breast
# [38] = test system: 786-0 renal
# [39] = test system: HL-60(TB) leukemia
# [40] = test system: NCI-H522 lung
# [41] = test system: SK-MEL-2 melanoma
# [42] = test system: OVCAR-5 ovarian
# [43] = test system: MDA-MB-435
# [44] = test system: UACC-62 melanoma
# [45] = test system: HCC-2998 colon
# [46] = test system: RXF 393 renal
# [47] = test system: MDA-MB-231 breast
# [48] = test system: OVCAR-3 ovarian
# [49] = test system: SNB-75 CNS
# [50] = test system: SR leukemia
# [51] = test system: SK-OV-3 ovarian
# [52] = test system: ACHN renal
structure (smiles),measurement,setting,value
Brc1ccc(SCN(CSc2ccc(Br)cc2)Cc2ccccc2)cc1,GI50,[1],2.67 µM
same,TGI,[1],10.9 µM
same,GI50,[2],1.51 µM
same,TGI,[2],3.47 µM
same,GI50,[3],2.64 µM
same,TGI,[3],7.25 µM
same,GI50,[4],2.31 µM
same,TGI,[4],12.6 µM
same,GI50,[5],2.37 µM
same,TGI,[5],6.82 µM
same,GI50,[6],4 µM
same,TGI,[6],95.8 µM
same,GI50,[7],6.12 µM
same,TGI,[7],21 µM
same,GI50,[8],1.38 µM
same,TGI,[8],14.2 µM
same,GI50,[9],3.71 µM
same,TGI,[9],17.9 µM
same,GI50,[10],1.28 µM
same,TGI,[10],3.49 µM
same,GI50,[11],4.05 µM
same,TGI,[11],17.5 µM
same,GI50,[12],5.12 µM
same,TGI,[12],23.4 µM
same,GI50,[13],3.06 µM
same,TGI,[13],13.3 µM
same,GI50,[14],1.75 µM
same,TGI,[14],3.9 µM
same,GI50,[15],3.58 µM
same,TGI,[15],15.1 µM
same,GI50,[16],5.44 µM
same,TGI,[16],60.6 µM
same,GI50,[17],2.02 µM
same,TGI,[17],6.82 µM
same,GI50,[18],1.93 µM
same,TGI,[18],8.64 µM
same,GI50,[19],2.41 µM
same,TGI,[19],11 µM
same,GI50,[20],1.77 µM
same,TGI,[20],3.46 µM
same,GI50,[21],5.05 µM
same,TGI,[21],18 µM
same,GI50,[22],2.1 µM
same,TGI,[22],7.4 µM
same,GI50,[23],3.47 µM
same,TGI,[23],12.5 µM
same,GI50,[24],3.85 µM
same,TGI,[24],13.7 µM
same,GI50,[25],3.66 µM
same,TGI,[25],14.4 µM
same,GI50,[26],2.78 µM
same,TGI,[26],12 µM
same,GI50,[27],2.69 µM
same,TGI,[27],23.5 µM
same,GI50,[28],1.92 µM
same,TGI,[28],3.88 µM
same,GI50,[29],1.61 µM
same,TGI,[29],3.19 µM
same,GI50,[30],2.34 µM
same,TGI,[30],10.3 µM
same,GI50,[31],3.56 µM
same,TGI,[31],18.8 µM
same,GI50,[32],3.79 µM
same,TGI,[32],14.2 µM
same,GI50,[33],3.31 µM
same,TGI,[33],10.5 µM
same,GI50,[34],1.93 µM
same,TGI,[34],4.39 µM
same,GI50,[35],10.4 µM
same,TGI,[35],87.8 µM
same,GI50,[36],3.2 µM
same,TGI,[36],14.2 µM
same,GI50,[37],2.98 µM
same,TGI,[37],> 100 µM
same,GI50,[38],4.3 µM
same,TGI,[38],15.5 µM
same,GI50,[39],2.35 µM
same,TGI,[39],5.36 µM
same,GI50,[40],2.43 µM
same,TGI,[40],5.62 µM
same,GI50,[41],6.06 µM
same,TGI,[41],19.9 µM
same,GI50,[42],2.89 µM
same,TGI,[42],11.4 µM
same,GI50,[43],3.1 µM
same,TGI,[43],12.2 µM
same,GI50,[44],3.01 µM
same,TGI,[44],9.34 µM
same,GI50,[45],11.5 µM
same,TGI,[45],25.5 µM
same,GI50,[46],5.54 µM
same,TGI,[46],20.4 µM
same,GI50,[47],1.69 µM
same,TGI,[47],4.3 µM
same,GI50,[48],3.54 µM
same,TGI,[48],11.4 µM
same,GI50,[49],2.28 µM
same,TGI,[49],10.9 µM
same,GI50,[50],2.77 µM
same,TGI,[50],7.77 µM
same,GI50,[51],7.12 µM
same,TGI,[51],51 µM
same,GI50,[52],4.49 µM
same,TGI,[52],19 µM

# — PubChem BioAssay (NCI)
